For 20 compounds, IC50 results are on record in patent US20250084078A1, “FUSED RING-SUBSTITUTED SIX-MEMBERED HETEROCYCLIC COMPOUND, AND PREPARATION METHOD THEREFOR AND USE THEREOF” (GENFLEFT THERAPEUTICS (SHANGHAI) INC., priority 2022, published 2025).

By IC50 is commonly meant the concentration that gives 50% inhibition.

HPK1, sequence (Q92918 whole entry): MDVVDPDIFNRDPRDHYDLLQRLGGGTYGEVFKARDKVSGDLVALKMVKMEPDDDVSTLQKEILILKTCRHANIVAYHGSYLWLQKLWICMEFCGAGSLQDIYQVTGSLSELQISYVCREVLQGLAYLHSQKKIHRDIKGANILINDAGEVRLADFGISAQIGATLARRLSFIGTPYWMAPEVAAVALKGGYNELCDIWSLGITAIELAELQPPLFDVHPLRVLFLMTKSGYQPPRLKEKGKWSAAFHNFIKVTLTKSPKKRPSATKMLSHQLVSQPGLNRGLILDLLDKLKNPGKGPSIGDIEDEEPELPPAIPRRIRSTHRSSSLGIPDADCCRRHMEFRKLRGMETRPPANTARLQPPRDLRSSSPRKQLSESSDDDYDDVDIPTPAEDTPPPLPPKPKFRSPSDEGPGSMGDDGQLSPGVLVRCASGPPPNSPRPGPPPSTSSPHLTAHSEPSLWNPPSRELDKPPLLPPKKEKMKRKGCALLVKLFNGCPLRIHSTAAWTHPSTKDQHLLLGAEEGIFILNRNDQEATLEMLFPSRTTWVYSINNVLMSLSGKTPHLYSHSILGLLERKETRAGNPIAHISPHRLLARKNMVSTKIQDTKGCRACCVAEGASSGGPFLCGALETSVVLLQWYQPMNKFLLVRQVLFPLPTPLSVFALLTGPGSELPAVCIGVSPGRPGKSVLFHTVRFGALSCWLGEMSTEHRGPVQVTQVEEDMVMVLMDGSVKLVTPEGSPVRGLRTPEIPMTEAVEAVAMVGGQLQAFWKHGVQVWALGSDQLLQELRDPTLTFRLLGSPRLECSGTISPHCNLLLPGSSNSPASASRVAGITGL

The experiment concerns the target HPK1 (Homo sapiens, UniProt Q92918). As to the kind of experiment: SLP76 phosphorylation assay (intracellular HPK1 inhibitory activity, p-SLP76 S376 ELISA in Jurkat cells). The following applies: p-SLP76 IC50, Jurkat, Clone E6-1 cells; 1 h compound pre-incubation; anti-CD3 beads stimulation 20 min; Phospho-SLP-76 (Ser376) ELISA.
Description: SLP76 Phosphorylation Assay
Intracellular HPK1 inhibitory activity was tested by the detection of SLP76 phosphorylation at S376.
Preparation of 1000× drug stock plate: a 1000× compound stock plate was prepared. […] The compound stock plate was sealed with a sealing film and stored in a −20° C. refrigerator for later use.
Preparation of Beads wash buffer: 0.1 mL FBS and 0.4 mL 0.5 M EDTA (with a final concentration of 2 mM) were added to 100 mL PBS and stored in a 4° C. refrigerator for later use.
100× Protease Inhibitor Cocktail in 1/20 total volume was added and stored on wet ice for later use. The buffer was ready to use.
Cell inoculation and dosing: the 1000× drug stock plate was taken and melted at room temperature in the dark. […] Jurkat cells in the logarithmic growth phase were selected and collected. […] The cells were inoculated into a 96-well plate (the volume was 90 μL per well), and a blank control well (without cells inoculation, and in which 110 μL of medium was added) was set. 10 μL of a drug-containing culture medium (10×) was transferred from the 10× drug intermediate plate into the 96-well cell plate (with a final concentration of 0.1% DMSO), and set a DMSO control group (in which 0.1% DMSO was added to the treated cells), a stimulated control group (in which 10 μL of culture medium was added to treat cells) and an unstimulated group (in which 10 μL of culture medium was added to treat cells). The wells were duplicated, gently patted, mixed, and then placed into a 5% CO2 incubator at 37° C. for 1 h.
Anti-CD3 beads stimulation: Dynabeads anti-human CD3 was taken, shaken, and mixed for 60 s. The required volume of beads was pipetted, and an equal volume or at least 1 mL of washing solution was added to wash once. Fresh complete medium was then added to resuspend and adjust the density of the beads to 4×10^7/mL, and the beads were placed on ice for later use. At the end of drug pre-incubation, the cell culture plate was taken out. 10 μL Dynabeads anti-human CD3 was added to each well to treat the cells, and 10 μL the culture medium was added to the unstimulated group. The cell culture plate was shaken to mix well at 2500 rpm for 10 s, and then placed into a 5% CO2 incubator at 37° C. and continued to culture for 20 min.
Detection of p-SLP76 protein level: PathScan Phospho-SLP-76 (Ser376) Sandwich ELISA Kit was applied to detect p-SLP76 protein level. At the end of the Anti-CD3 beads stimulation, the cell culture plate was removed from the incubator. […] After lysis, the cell culture plate was centrifuged at 4° C., 400×g for 5 min. 25 μL of sample and 75 μL of sample diluent were added to each well, and the plate was placed in a 5% CO2 incubator at 37° C. for 2 h. The subsequent detection steps were carried out following the kit instructions, and the absorbance (OD value) of each well was read at 450 nm by a microplate reader.
The compound `O=C(N1CCOCC1)N1CCc2cc(-c3cnc4[nH]cc(Cl)c4n3)cc([C@@H]3COCCN3)c2C1` [Compound Z527, (R)-(6-(7-chloro-5H-pyrrolo[2,3-b]pyrazin-2-yl)-8-(morpholin-3-yl)-3,4-dihydroisoquinolin-2(1H)-yl)(morpholino)methanone] displayed an IC50 of 164 nM.

`Cc1cc(C(=O)N2CCc3cc(-c4cnc5[nH]cc(Cl)c5c4)cc([C@@H]4COCCN4)c3C2)nc(C)n1` [Compound Z531, (R)-(6-(3-chloro-1H-pyrrolo[2,3-b]pyridin-5-yl)-8-(morpholin-3-yl)-3,4-dihydroisoquinolin-2(1H)-yl)(2,6-dimethylpyrimidin-4-yl)methanone] had an IC50 of 385 nM.

As for `Cc1ncc(C(=O)N2CCc3cc(-c4cnc5[nH]cc(Cl)c5c4)cc([C@@H]4COCCN4)c3C2)cn1` [Compound Z532, (R)-(6-(3-50 chloro-1H-pyrrolo[2,3-b]pyridin-5-yl)-8-(morpholin-3-yl)-3,4-dihydroisoquinolin-2(1H)-yl)(2-methylpyrimidin-5-yl)methanone], the concentration for half-maximal inhibition (IC50) stood at 394 nM. This IC50 and that of the compound before are within 1.5-fold of each other.

Regarding `CCc1c[nH]c2ncc(-c3cc4c(c([C@@H]5COCCN5)c3)CN(C(=O)c3cnc(C)nc3)CC4)nc12` [Compound Z533, (R)-(6-(7-ethyl-5H-pyrrolo[2,3-b]pyrazin-2-yl)-8-(morpholin-3-yl)-3,4-dihydroisoquinolin-2(1H)-yl)(2-methylpyrimidin-5-yl)methanone], the IC50 stood at 229 nM. Against the preceding compound, the IC50 is about 1.7-fold lower.

In turn, `Cc1c[nH]c2ncc(-c3cc4c(c([C@@H]5COCCN5)c3)CN(CC3(O)CCOCC3)CC4)cc12` [Compound Z538, (R)-4-((6-(3-methyl-1H-pyrrolo[2,3-b]pyridin-5-yl)-8-(morpholin-3-yl)-3,4-dihydroisoquinolin-2(1H)-yl)methyl)tetrahydro-2H-pyran-4-ol] registered an IC50 of 1050 nM.

Consider `CCc1c[nH]c2ncc(-c3cc4c(c([C@@H]5COCCN5)c3)CN(C(=O)C(C)(C)O)CC4)nc12` [Compound Z540, (R)-1-(6-(7-ethyl-5H-pyrrolo[2,3-b]pyrazin-2-yl)-8-(morpholin-3-yl)-3,4-dihydroisoquinolin-2(1H)-yl)-2-hydroxy-2-methylpropan-1-one], for which half-maximal inhibition (IC50) required 524 nM.

For `O=C(C1CCOCC1)N1CCc2cc(-c3cnc4[nH]cc(Cl)c4c3)cc([C@@H]3COCCN3)c2C1` [Compound Z543, (R)-[6-(3-chloro-1H-pyrrolo[2,3-b]pyridin-5-yl)-8-(morpholin-3-yl)-3,4-dihydroisoquinolin-2(1H)-yl](tetrahydro-2H-pyran-4-yl)methanone], it took 236 nM to reach half-maximal inhibition (IC50).

Take `Cc1cc(-c2c[nH]c3ncc(-c4cc5c(c([C@@H]6COCCN6)c4)CN(C(=O)C(C)(C)O)CC5)cc23)c(C)cn1` [Compound Z545, (R)-1-(6-(3-(2,5-dimethylpyridin-4-yl)-1H-pyrrolo[2,3-b]pyridin-5-yl)-8-(morpholin-3-yl)-3,4-dihydroisoquinolin-2(1H)-yl)-2-hydroxy-2-methylpropan-1-one]: the IC50 worked out at 560 nM.

On to `O=C(N1CCc2cc(-c3cnc4[nH]cc(Cl)c4n3)cc([C@@H]3COCCN3)c2C1)N1CC2CCC1CO2` (stereo partly drawn) [Compound Z550, (2-oxa-5-azabicyclo[2.2.2]octan-5-yl)(6-(7-chloro-5H-pyrrolo[2,3-b]pyrazin-2-yl)-8-((R)-morpholin-3-yl)-3,4-dihydroisoquinolin-2(1H)-yl)methanone], for which 117 nM corresponded to half-maximal inhibition (IC50).

For `Cc1c[nH]c2ncc(-c3cc4c(c([C@@H]5COCCN5)c3)CN(C(=O)N3CC5CCC(C3)C5O)CC4)cc12` (stereo partly drawn) [Compound Z551, (8-hydroxy-3-azabicyclo[3.2.1]octan-3-yl)(6-(3-methyl-1H-pyrrolo[2,3-b]pyridin-5-yl)-8-((R)-morpholin-3-yl)-3,4-dihydroisoquinolin-2(1H)-yl)methanone], the IC50 was determined as 498 nM.

In turn, `O=C(N1CCC(O)CC1)N1CCc2cc(-c3cnc4[nH]cc(Cl)c4c3)cc([C@@H]3COCCN3)c2C1` [Compound Z555, (R)-(6-(3-chloro-1H-pyrrolo[2,3-b]pyridin-5-yl)-8-(morpholin-3-yl)-3,4-dihydroisoquinolin-2(1H)-yl)(4-hydroxypiperidin-1-yl)methanone] registered an IC50 of 481 nM.

`Cc1c[nH]c2ncc(-c3cc4c(c([C@@H]5COCCN5)c3)CN(C(=O)N3CCC(O)CC3)CC4)cc12` [Compound Z556, (R)-(4-hydroxypiperidin-1-yl)(6-(3-methyl-1H-pyrrolo[2,3-b]pyridin-5-yl)-8-(morpholin-3-yl)-3,4-dihydroisoquinolin-2(1H)-yl)methanone] had an IC50 of 962 nM.

Take `Cc1c[nH]c2ncc(-c3cc4c(c([C@@H]5COCCN5)c3)CN(C(=O)N3CCC(O)C3)CC4)cc12` (stereo partly drawn) [Compound Z558, (3-hydroxypyrrolidin-1-yl)(6-(3-methyl-1H-pyrrolo[2,3-b]pyridin-5-yl)-8-((R)-morpholin-3-yl)-3,4-dihydroisoquinolin-2(1H)-yl)methanone]: it took 936 nM to reach half-maximal inhibition (IC50).

In turn, `Cc1c[nH]c2ncc(-c3cc4c(c([C@@H]5COCCN5)c3)CN(C(=O)N3CCOC5CC53)CC4)cc12` (stereo partly drawn) [Compound Z562, (2-oxa-5-azabicyclo[4.1.0]heptan-5-yl)(6-(3-methyl-1H-pyrrolo[2,3-b]pyridin-5-yl)-8-((R)-morpholin-3-yl)-3,4-dihydroisoquinolin-2(1H)-yl)methanone] showed an IC50 of 147 nM. This IC50 is about 6.4-fold lower than that of the compound before.

In the case of `Cc1c[nH]c2ncc(-c3cc4c(c([C@@H]5COCCN5)c3)CN(C(=O)N3CC5(CCOCC5)C3)CC4)cc12` [Compound Z563, (R)-(6-(3-methyl-1H-pyrrolo[2,3-b]pyridin-5-yl)-8-(morpholin-3-yl)-3,4-dihydroisoquinolin-2(1H)-yl)(7-oxa-2-azaspiro[3.5]nonan-2-yl)methanone], the IC50 stood at 174 nM.

Consider `Cc1c[nH]c2ncc(-c3cc4c(c([C@@H]5COCCN5)c3)CN(C(=O)N3CCC5(CCOCC5)C3)CC4)cc12` [Compound Z565, (R)-(6-(3-methyl-1H-pyrrolo[2,3-b]pyridin-5-yl)-8-(morpholin-3-yl)-3,4-dihydroisoquinolin-2(1H)-yl)(8-oxa-2-azaspiro[4.5]decan-2-yl)methanone], for which inhibition was half-maximal at 245 nM (IC50).

In the case of `CCc1c[nH]c2ncc(-c3cc4c(c([C@@H]5COCCN5)c3)CN(C(=O)c3cnc(C)nc3)CC4)cc12` [Compound Z567, (R)-(6-(3-ethyl-1H-pyrrolo[2,3-b]pyridin-5-yl)-8-(morpholin-3-yl)-3,4-dihydroisoquinolin-2(1H)-yl)(2-methylpyrimidin-5-yl)methanone], the IC50 was 125 nM.

On to `CC1(C)CC(O)CN1C(=O)N1CCc2cc(-c3cnc4[nH]cc(Cl)c4n3)cc([C@@H]3COCCN3)c2C1` (stereo partly drawn) [Compound Z569, (6-(7-chloro-5H-pyrrolo[2,3-b]pyrazin-2-yl)-8-((R)-morpholin-3-yl)-3,4-dihydroisoquinolin-2(1H)-yl)(4-hydroxy-2,2-dimethylpyrrolidin-1-yl)methanone], for which the IC50 turned out to be 154 nM.

`C[C@H]1COCCN1C(=O)N1CCc2cc(-c3cnc4[nH]cc(Cl)c4n3)cc([C@@H]3COCCN3)c2C1` [Compound Z573] registered a half-maximal inhibitory concentration (IC50) of 122 nM. The IC50 values of the last two compounds are within 1.5-fold of each other.

`CN1C2CCC1CN(C(=O)N1CCc3cc(-c4cnc5[nH]cc(Cl)c5n4)cc([C@@H]4COCCN4)c3C1)C2` [Compound Z575, (6-(7-chloro-5H-pyrrolo[2,3-b]pyrazin-2-yl)-8-((R)-morpholin-3-yl)-3,4-dihydroisoquinolin-2(1H)-yl)(8-methyl-3,8-diazabicyclo[3.2.1]octan-3-yl)methanone] came in with an IC50 of 420 nM.
